Test results as given in patent US4178442A, “Novel cinnamoyles piperazines and homopiperazines, the method of preparing them and their application in therapeutics” (Delalande S. A., priority 1977, dated 1979).
Read-outs that look alike come from different tables or passages of the source.

Experiments:
anaesthetized dog [1] = assay: Activity on the peripheral circulation, anaesthetized dog; assay type: in vivo
Experimental: The activity on the peripheral circulation was studied on an anaesthetized dog (sodium pentobarbital 30 mg/kg/i.v.). The femoral artery flow was measured by means of an electromagnetic or ultrasonic perivascular Doppler effect probe.

anaesthetized dog [2] = assay: Activity on the cerebral circulation, anaesthetized dog; assay type: in vivo; details: for change in vivo at 2.5 mg/kg / change in vivo at 5 mg/kg / change in vivo at 2 mg/kg: Canis lupus familiaris, iv; for Increase of the extraction of cerebral oxygen: (A-V)/A
Experimental: The activity on the cerebral circulation was tested on an anaesthetized dog (sodium pentobarbital 30 mg/kg/i.v.). The vertebral artery flow was measured by means of an electromagnetic perivascular or ultrasonic Doppler effect probe. The intracerebral vascular resistance was estimated by the back pressure of the internal carotid artery. […] The increase in the extraction of cerebral oxygen was estimated by the following equation:(A-V)/A in which: A represents the volume of oxygen in the arterial blood (% volume) measured by hemoreflectometry (KIPP and ZONEN's apparatus) and quantity determination of the haemoglobin (DRABKIN's method). V represents the volume of oxygen in the cerebral venous blood (internal maxillary vein). […] It should be noted that the compounds tested were injected intravenously (rapid injection).

anaesthetized dog [3] = assay: Antiangorous activity on anaesthetized dog: consumption of oxygen in the left ventricule and cardiac effort (KATZ's index); assay type: in vivo; details: for inhibition in vivo at 2.3 mg/kg / inhibition in vivo at 2.5 mg/kg / inhibition in vivo at 9.1 mg/kg: Canis lupus familiaris, iv
How it was run: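 Katz index taken as mean arterial pressure multiplied by ECG (D2) heart rate, and myocardial O2 use as coronary sinus flow via modified Morawitz cannula times coronary arteriovenous O2 difference. Animals: pentobarbital-anaesthetized dogs (30 mg/kg i.v.), test compounds infused slowly intravenously.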

in vivo = details: iv, read-out: Toxicity: LD50
Description: *LD50 or percentage of mortality which is given between brackets

[4] = Canis lupus familiaris, iv, dog, 5 mg/kg i.v. slow perfusion, read-out: Average arterial pressure
[5] = Canis lupus familiaris, iv, dog, 5 mg/kg i.v. slow perfusion, read-out: Femoral artery flow
[6] = dog, 5 mg/kg i.v. slow perfusion
[7] = dog, 2,5 mg/kg i.v. slow perfusion
[8] = dog, 2,5 mg/kg i.v. rapid injection
[9] = dog, 5 mg/kg i.v. rapid injection, read-out: Internal carotid artery back pressure
[10] = dog, 5 mg/kg i.v. rapid injection, read-out: Systemic average arterial pressure
[11] = dog, 5 mg/kg i.v. rapid injection, read-out: Vertebral artery flow
[12] = dog, 5 mg/kg i.v. rapid injection
[13] = dog, 10 mg/kg i.v. slow perfusion
[14] = dog, 2 mg/kg i.v. rapid injection

For COc1cc(/C=C/C(=O)N2CCN(CC(O)COc3ccccc3C)CC2)cc(OC)c1OC (stereo not drawn) [760 502], the change in vivo at 5 mg/kg (anaesthetized dog [1]; [4]) was -22%, the change in vivo at 5 mg/kg (anaesthetized dog [1]; [5]) was 190% and the “Average arterial pressure: in time” value (anaesthetized dog [1]; [6]) was 15 min. For the same compound, the “Femoral artery flow: in time” value (anaesthetized dog [1]; [6]) was 35 min.

In the case of CCN(CC)CCOC(=O)C(Cc1cccc2ccccc12)CC1CCCO1 (stereo not drawn) [Naphtidrofuryl, naphtidrofuryl, reference compound], the change in vivo at 2.5 mg/kg (anaesthetized dog [1]; Canis lupus familiaris, iv, dog, 2,5 mg/kg i.v. slow perfusion, read-out: Average arterial pressure) is reported as -50%, the change in vivo at 2.5 mg/kg (anaesthetized dog [1]; Canis lupus familiaris, iv, dog, 2,5 mg/kg i.v. slow perfusion, read-out: Femoral artery flow) is reported as 100% and the “Average arterial pressure: in time” value (anaesthetized dog [1]; [7]) is reported as 2 min. The “Femoral artery flow: in time” value (anaesthetized dog [1]; [7]) was 5 min, the change in vivo at 2.5 mg/kg (anaesthetized dog [2]; dog, 2,5 mg/kg i.v. rapid injection, read-out: Internal carotid artery back pressure) was -26% and the change in vivo at 2.5 mg/kg (anaesthetized dog [2]; dog, 2,5 mg/kg i.v. rapid injection, read-out: Systemic average arterial pressure) was -50%. The change in vivo at 2.5 mg/kg (anaesthetized dog [2]; dog, 2,5 mg/kg i.v. rapid injection, read-out: Vertebral artery flow) was 100%, the “Internal carotid artery back pressure: in time” value (anaesthetized dog [2]; [8]) was 5 min and the Systemic average arterial pressure: in time (anaesthetized dog [2]; [8]) was 2 min. For the same compound, the “Vertebral artery flow: in time” value (anaesthetized dog [2]; [8]) was 5 min and the “Increase of the extraction of cerebral oxygen” value (from here on “Increase”) (anaesthetized dog [2]; [8]) was -50%.

With COc1cc(/C=C/C(=O)N2CCN(CC(O)COc3cccc(Cl)c3)CC2)cc(OC)c1OC (stereo not drawn) [760 504] the change in vivo at 5 mg/kg (anaesthetized dog [1]; [4]) was -23%, the change in vivo at 5 mg/kg (anaesthetized dog [1]; [5]) was 49% and the “Average arterial pressure: in time” value (anaesthetized dog [1]; [6]) was 10 min. For the same compound, the “Femoral artery flow: in time” value (anaesthetized dog [1]; [6]) was 15 min.

With COc1ccc(Cc2nccc3cc(OC)c(OC)cc23)cc1OC [Papaverine, papaverine, reference compound] the change in vivo at 2 mg/kg (anaesthetized dog [1]; Canis lupus familiaris, iv, read-out: Femoral artery flow) was 100%, the “Femoral artery flow: in time” value (anaesthetized dog [1]; dog, 2 mg/kg i.v. slow perfusion) was 1 min and the change in vivo at 2.5 mg/kg (anaesthetized dog [2]; read-out: Internal carotid artery back pressure) was -45%. The change in vivo at 2.5 mg/kg (anaesthetized dog [2]; read-out: Vertebral artery flow) was 100%, the “Internal carotid artery back pressure: in time” value (anaesthetized dog [2]; [8]) was 5 min and the “Vertebral artery flow: in time” value (anaesthetized dog [2]; [8]) was 6 min. For the same compound, the “Increase” value (anaesthetized dog [2]; [8]) was 0%.

With COc1cc(/C=C/C(=O)N2CCN(CC(O)COc3ccc(C)cc3)CC2)cc(OC)c1OC (stereo not drawn) [760 505] the change in vivo at 5 mg/kg (anaesthetized dog [1]; [4]) was -21%, the change in vivo at 5 mg/kg (anaesthetized dog [1]; [5]) was 24% and the “Average arterial pressure: in time” value (anaesthetized dog [1]; [6]) was 23 min. For the same compound, the “Femoral artery flow: in time” value (anaesthetized dog [1]; [6]) was 15 min, the change in vivo at 5 mg/kg (anaesthetized dog [2]; [9]) was -38% and the change in vivo at 5 mg/kg (anaesthetized dog [2]; [10]) was -11%. For the same compound, the change in vivo at 5 mg/kg (anaesthetized dog [2]; [11]) was 113%, the “Internal carotid artery back pressure: in time” value (anaesthetized dog [2]; [12]) was 10 min and the Systemic average arterial pressure: in time (anaesthetized dog [2]; [12]) was 20 min. The “Vertebral artery flow: in time” value (anaesthetized dog [2]; [12]) was 10 min.

For COc1cc(/C=C/C(=O)N2CCN(CC(O)COc3ccc(C#N)cc3)CC2)cc(OC)c1OC (stereo not drawn) [760 501], the change in vivo at 5 mg/kg (anaesthetized dog [1]; [4]) was -22%, the change in vivo at 5 mg/kg (anaesthetized dog [1]; [5]) was 61% and the “Average arterial pressure: in time” value (anaesthetized dog [1]; [6]) was 35 min. The “Femoral artery flow: in time” value (anaesthetized dog [1]; [6]) was 23 min, the “Diminution in consumption of O2: in time” value (anaesthetized dog [3]; 2.3 mg/kg i.v. slow perfusion) was 45 min and the “Diminution in the cardiac effort (IK): in time” value (shortened to “Diminution in the cardiac effort”) (anaesthetized dog [3]; 2.3 mg/kg i.v. slow perfusion) was 15 min. The inhibition in vivo at 2.3 mg/kg (anaesthetized dog [3]; 2.3 mg/kg i.v. slow perfusion, read-out: Diminution in consumption of O2) was 75% and the inhibition in vivo at 2.3 mg/kg (anaesthetized dog [3]; 2.3 mg/kg i.v. slow perfusion, read-out: Diminution in the cardiac effort (IK)) was 4%.

In the case of C=CCOc1ccccc1OCC(O)CN1CCN(C(=O)/C=C/c2cc(OC)c(OC)c(OC)c2)CC1 (stereo not drawn) [760 503], the change in vivo at 5 mg/kg (anaesthetized dog [1]; [4]) is reported as -6%, the change in vivo at 5 mg/kg (anaesthetized dog [1]; [5]) is reported as 87% and the “Average arterial pressure: in time” value (anaesthetized dog [1]; [6]) is reported as 15 min. The “Femoral artery flow: in time” value (anaesthetized dog [1]; [6]) was 15 min.

With COc1ccccc1OCC(O)CN1CCN(C(=O)/C=C/c2cc(OC)c(OC)c(OC)c2)CC1 (stereo not drawn) [760 392] the change in vivo at 10 mg/kg (anaesthetized dog [1]; Canis lupus familiaris, iv, dog, 10 mg/kg i.v. slow perfusion, read-out: Average arterial pressure) was -28%, the change in vivo at 10 mg/kg (anaesthetized dog [1]; Canis lupus familiaris, iv, dog, 10 mg/kg i.v. slow perfusion, read-out: Femoral artery flow) was 56% and the “Average arterial pressure: in time” value (anaesthetized dog [1]; [13]) was 38 min. For the same compound, the “Femoral artery flow: in time” value (anaesthetized dog [1]; [13]) was 45 min, the change in vivo at 2 mg/kg (anaesthetized dog [2]; dog, 2 mg/kg i.v. rapid injection, read-out: Internal carotid artery back pressure) was -79% and the change in vivo at 2 mg/kg (anaesthetized dog [2]; dog, 2 mg/kg i.v. rapid injection, read-out: Systemic average arterial pressure) was -39%. For the same compound, the change in vivo at 2 mg/kg (anaesthetized dog [2]; dog, 2 mg/kg i.v. rapid injection, read-out: Vertebral artery flow) was 186%, the “Internal carotid artery back pressure: in time” value (anaesthetized dog [2]; [14]) was > 30 min and the Systemic average arterial pressure: in time (anaesthetized dog [2]; [14]) was 30 min. For the same compound, the “Vertebral artery flow: in time” value (anaesthetized dog [2]; [14]) was < 30 min, the “Diminution in consumption of O2: in time” value (anaesthetized dog [3]; 2.5 mg/kg i.v. slow perfusion) was 30 min and the “Diminution in the cardiac effort” value (anaesthetized dog [3]; 2.5 mg/kg i.v. slow perfusion) was 30 min. For the same compound, the inhibition in vivo at 2.5 mg/kg (anaesthetized dog [3]; 2.5 mg/kg i.v. slow perfusion, read-out: Diminution in consumption of O2) was 31% and the inhibition in vivo at 2.5 mg/kg (anaesthetized dog [3]; 2.5 mg/kg i.v. slow perfusion, read-out: Diminution in the cardiac effort (IK)) was 11%.

For C(=C\c1ccccc1)/CN1CCN(C(c2ccccc2)c2ccccc2)CC1 [Cinnarizine, cinnarizine, reference compound], the change in vivo at 5 mg/kg (anaesthetized dog [1]; [5]) was 100%, the “Femoral artery flow: in time” value (anaesthetized dog [1]; [6]) was 30 min and the change in vivo at 5 mg/kg (anaesthetized dog [2]; [9]) was -25%. For the same compound, the change in vivo at 5 mg/kg (anaesthetized dog [2]; [11]) was 130%, the “Internal carotid artery back pressure: in time” value (anaesthetized dog [2]; [12]) was 30 min and the “Vertebral artery flow: in time” value (anaesthetized dog [2]; [12]) was 30 min. For the same compound, the “Increase” value (anaesthetized dog [2]; [12]) was 0%.

In the case of COc1cc(/C=C/C(=O)N2CCN(CC(O)COc3cccc(C)c3)CC2)cc(OC)c1OC (stereo not drawn) [760 521], the change in vivo at 5 mg/kg (anaesthetized dog [1]; [4]) is reported as -19%, the change in vivo at 5 mg/kg (anaesthetized dog [1]; [5]) is reported as 34% and the “Average arterial pressure: in time” value (anaesthetized dog [1]; [6]) is reported as 30 min. For the same compound, the “Femoral artery flow: in time” value (anaesthetized dog [1]; [6]) was 15 min.

COc1cccc(OCC(O)CN2CCN(C(=O)/C=C/c3cc(OC)c(OC)c(OC)c3)CC2)c1 (stereo not drawn) [760 390] showed a change in vivo at 5 mg/kg (anaesthetized dog [2]; [9]) of -22%, a change in vivo at 5 mg/kg (anaesthetized dog [2]; [10]) of -13% and a change in vivo at 5 mg/kg (anaesthetized dog [2]; [11]) of 177%. For the same compound, the “Internal carotid artery back pressure: in time” value (anaesthetized dog [2]; [12]) was 5 min, the Systemic average arterial pressure: in time (anaesthetized dog [2]; [12]) was < 10 min and the “Vertebral artery flow: in time” value (anaesthetized dog [2]; [12]) was 30 min. The LD50 (in vivo) was 227 mg/kg, the “Diminution in consumption of O2: in time” value (anaesthetized dog [3]; 9.1 mg/kg i.v. slow perfusion) was 53 min and the “Diminution in the cardiac effort” value (anaesthetized dog [3]; 9.1 mg/kg i.v. slow perfusion) was 45 min. The inhibition in vivo at 9.1 mg/kg (anaesthetized dog [3]; 9.1 mg/kg i.v. slow perfusion, read-out: Diminution in consumption of O2) was 64% and the inhibition in vivo at 9.1 mg/kg (anaesthetized dog [3]; 9.1 mg/kg i.v. slow perfusion, read-out: Diminution in the cardiac effort (IK)) was 60%.
